The values below come from patent publication US20220280543A1, “DDX17 AND NLRC4 TARGETING FOR INFLAMMATORY DISEASES” (University of Virginia Patent Foundation, priority 2019, published 2022).

One data set concerns RPE degeneration. In words: Alu RNA induced RPE degeneration in mice, fundus images and ZO-1 staining. It counts as in vivo. The following applies: mice, subretinal Alu RNA; fundus and ZO-1 (FIGS. 25B, 26). The protocol:
FIGS. 25A and 25B. NLRC4 knockdown blocks Alu RNA (SEQ ID NO: 86) induced ASC oligomerization and RPE degeneration. Human RPE cell treated with siRNA target on NLRC4 (SMARTPOOL siRNA for NLRC4: CAACUGGGCUCCUCUGUAA; SEQ ID NO: 93) and NAIP (SMARTPOOL siRNA for NAIP: GUAAAGAGCUAUAUGGAUA; SEQ ID NO: 94), 24 hours later, treated with Alu RNA (SEQ ID NO: 86 at 100 pmol) FIG. 25A. […] The band of ASC oligomers was indicated by black arrow. […] The hyperdense areas due to the RPE degeneration in fundus images and ZO-1 disorganizations in RPE sheet are indicated by white arrows.
FIG. 26. […] Wilde type of C57/B6 mice were intravitreally injected with siRNA target on Ddx17 (siRNA for Ddx17: GGCUAGAUGUGGAAGAUGU; SEQ ID NO: 95), and two days later, Nlrc4^−/−, Naip1-6^−/−, mice and Ddx17 knockdown mice were subretinally injected with Alu RNA (SEQ ID NO: 86). […] The hyperdense areas due to the RPE degeneration in fundus images and ZO-1 disorganizations in RPE sheet are indicated by white arrows.
Next, we asked whether Alu RNA (SEQ ID NO: 86) also triggered NLRC4 inflammasome activation in human RPE cells. We performed immunofluorescence staining experiments to examine whether Alu RNA (SEQ ID NO: 86) can induce NLRC4 speck formation in human RPE cells. We noticed punctate structures resembling specks of NLRC4 in human RPE cells in response to Alu RNA (SEQ ID NO: 86) treatment (FIG. 24A). […] We further investigated downstream events of NLRC4 inflammasome activation by studying NLRC4-induced ASC oligomerization, a critical step involved in caspase-1 cleavage. NLRC4 siRNA, when co-administered with Alu RNA (SEQ ID NO: 86), blocked ASC oligomerization in vitro (FIG. 25A) and RPE degeneration in vivo (FIG. 25B).
We delivered Alu RNA (SEQ ID NO: 86) or Alu RNA (SEQ ID NO: 86)+siDDX17 subretinally in WT or NLRC4 KO or NAIP1-6 KO mice and examined for RPE degeneration using fundus photos and ZO-1 staining as described previously.

In a further data set the test system is NLRC4 inflammasome. Nature of the data set: Flagellin induced classical NLRC4 inflammasome (caspase-1) after DDX17 knockdown. It counts as cell-based. The note with it: Flagellin 3 μg/ml, siRNA 24 hours before (FIG. 15). The protocol:
(§1) FIG. 15. […] THP1 cell were transfected with siRNA target on DDX17 (siRNA sequence: CCAAUCUGAUGUAUCAGGA; SEQ ID NO: 91), and then 24 hours later, Flagellin (3 μg/ml) or LPS (125 ng/ml) plus ATP ([…]/30 minutes), DOTAP plus LPS was added to the THP1 cells. Supernatants were collected for Caspase-1 detection. […] Loading control show by actin. The caspase-1 precursor is referred as p45, and the active form of caspase-1 as p20. The adaptor protein for inflammasome assembly, apoptosis-associated speck-like protein containing a CARD (ASC) is labeled as ASC. The caspase-1p20) bands were indicated with black arrow.
(§2) We finally examined whether DDX17 has a role in conventional NLRC4 activation by flagellin that requires NAIP and LPS+ATP dependent NLRP3 inflammasome activation. We treated […] with flagellin or LPS+ATP and transfected with siDDX17 and examined NLRC4 or NLRP3 dependent caspase-1 cleavage.

The next data set concerns IL-1β. Nature of the data set: Alu RNA induced IL-1β release in THP1 cells after siRNA knockdown, ELISA. The data set is classed as cell-based, human. The note with it: siRNA knockdown (FIG. 12B). The text has this:
(§3) FIGS. 12A and 12B. DDX17 knockdown blocks Alu RNA (SEQ ID NO: 86) induced ASC oligomerization and IL-1β release. FIG. 12A. siRNA mediated DDX17 knockdown (siRNA for DDX17: CCAAUCUGAUGUAUCAGGA; SEQ ID NO: 91), but not Ddx5 (siRNA for DDX5: GGAAAUUACAGUUAGAGGU; SEQ ID NO: 89) in THP1 cells, blocked Alu RNA (SEQ ID NO: 86) induced ASC oligomerization. The band of ASC oligomers were indicated by black arrow. FIG. 12B. siRNA mediated DDX17 knockdown, but not Ddx5 in THP1 cells, blocked Alu RNA (SEQ ID NO: 86) induced IL-1β release.
(§4) To further confirm that DDX17 is the sensor for NLRC4, we investigated caspase-1 cleavage by immunoblotting and IL-1β secretion by ELISA in Alu RNA (SEQ ID NO: 86) or mock treated THP1 cells and DDX17 KO BMDMs respectively.
(In an ELISA, binding on a coated surface is turned into a signal by an enzyme label.)

The test system of another data set is caspase-1. Nature of the data set: Alu RNA induced caspase-1 activation in THP1 cells after siRNA knockdown. The data set is classed as cell-based, human. The following applies: siRNA knockdown (FIGS. 11A, 11B). The text has this:
FIGS. 11A and 11B. Ddx17 involved in Alu RNA (SEQ ID NO: 86) induced inflammasome independent of its microprocessor function. DDX17 is a component of microprocessor complexes with DDX5 and Drosha. To test whether the microprocessor function of DDX17 is required for Alu RNA (SEQ ID NO: 86) induced inflammasome, we measured caspase-1 activation in THP cells with DDX5 or Drosha knockdown (siRNA for DDX5: GGAAAUUACAGUUAGAGGU; SEQ ID NO: 89); siRNA for Drosha: GACAAGUUGAUAGGAUAUA; SEQ ID NO: 90). FIG. 11A. siRNA mediated Ddx17 knockdown, but not Ddx5 in THP1 cells, blocked Alu RNA (SEQ ID NO: 86) induced caspase-1 activation. […] The caspase-1 (p20) bands were indicated with black arrows.
We next examined whether DDX5 or DDX17 was the sensor for Alu RNA (SEQ ID NO: 86) induced NLRC4 inflammasome activation. Due to the high degree of similarity in the sequences of DDX5 and DDX17, we designed 3 siRNAs targeting DDX5 alone, DDX17 alone, or both DDX5 and DDX17, and confirmed their target efficiency in THP1 cells (FIG. 11A). […] Therefore, we tested whether Drosha is also involved in SINE RNA-DDX17-NLRC4 axis. […] These observations implicate that DDX17 mediated SINE RNA induced NLRC4 inflammasome is independent of microprocessor function.

The test system of data set [1] is CXCL10, IFNB, IL-1β, CASPASE-1 expression. Nature of the data set: Alu RNA induced type I interferon response and inflammatory priming, qPCR, BMDM with DDX17 knockdown. It counts as cell-based, mouse. The following applies: siRNA 24 hours before Alu RNA 100 pmol, qPCR (FIGS. 14A, 14B). The procedure:
FIGS. 14A and 14B. […] Wild type BMDM cell were transfected with siRNA target on DDX17 (CCAAUCUGAUGUAUCAGGA; SEQ ID NO: 91), and then 24 hours later, BMDM cells were treated with Alu RNA (SEQ ID NO: 86; 100 pmol). Total RNA extracted for qPCR assay.
We previously reported that Alu RNA (SEQ ID NO: 86) induces a type I interferon (IFN) response and inflammatory priming in BMDMs. Since DDX17 is essential for Alu RNA (SEQ ID NO: 86) induced inflammasome activation, we tested whether DDX17 knockdown could affect downstream events of the inflammasome cascade such as the type I IFN response.
A general note: Quantitative PCR measures a nucleic acid by following its amplification.

Another data set relates to ASC oligomerization. In words: Alu RNA induced ASC oligomerization in THP1 cells after siRNA knockdown. The note with it: siRNA knockdown (FIG. 12A). The data set is classed as cell-based, human.
Text: as §3, §4

For another data set, the system named is NLRP3 inflammasome. Nature of the data set: LPS+ATP induced NLRP3 inflammasome (caspase-1) after DDX17 knockdown. It counts as cell-based. The note with it: LPS 125 ng/ml plus ATP, siRNA 24 hours before (FIG. 15). The protocol:
as §1, §2

With “siDDX17: siRNA for DDX17: CCAAUCUGAUGUAUCAGGA; SEQ ID NO: 91 (chemistry not fully specified)”, the “Alu RNA induced RPE degeneration in vivo, effect of siRNA” value in the data set with RPE degeneration was “rescued from this phenotype”. Further, the “flagellin induced NLRC4 inflammasome, caspase-1 levels” value in the data set on NLRC4 inflammasome is recorded as “does not affect”. In addition, the “Alu RNA induced IL-1β release, THP1 cells, ELISA” value in the data set with IL-1β is on record as “significantly reduced”. Also, the “caspase-1 cleavage in Alu RNA treated THP1 cells” value is “inhibited” in the data set on caspase-1 and “reduce” in the data set on caspase-1 (listed as DDX17 siRNA). Besides, in data set [1], the “expression of caspase-1, CXCL10, IFNβ, IL-18 and IL-1β genes after Alu RNA” value is “did not affect”. Besides, the “Alu RNA induced ASC oligomerization, THP1 cells” value in the data set with ASC oligomerization was “prevented”. In the data set with NLRP3 inflammasome, the “LPS+ATP induced NLRP3 inflammasome, caspase-1 levels” value is on record as “does not affect”.
